Test results reported in ChEMBL document CHEMBL1151361, “Soularubinone, a new antileukemic quassionoid from Soulamea tomentosa” (1981).

How the values were obtained:
Format in all cases: functional
[1] = test system: P388; test: In vivo antitumor activity against mouse P388 cells at 2 mg/kg relative to control
[2] = test system: P388; test: In vivo antitumor activity against mouse P388 cells at 0.5 mg/kg relative to control
[3] = test system: P388; test: In vivo antitumor activity against mouse P388 cells at 9 mg/kg relative to control
[4] = test system: P388; test: In vivo antitumor activity against mouse P388 cells at 4 mg/kg relative to control

**Q.** How did the T/C [1] turn out when `CCC(C)C(=O)O[C@H]1C(=O)O[C@@H]2C[C@H]3C(C)=CC(=O)[C@@H](O)[C@]3(C)[C@H]3[C@]4(O)OC[C@]32[C@@H]1[C@@H](C)[C@H]4O` (some centres undefined) [AILANTHINONE] was run?
**A.** 148%

**Q.** `CC[C@](C)(O)C(=O)O[C@H]1C(=O)O[C@@H]2C[C@H]3C(C)=CC(=O)[C@@H](O)[C@]3(C)[C@H]3[C@@]4(O)OC[C@]32[C@@H]1[C@@H](C)[C@H]4O` [GLAUCARUBINONE] was tested. Which T/C [2] did it give?
**A.** 231%

**Q.** With `CC(=O)O[C@H]1C(=O)O[C@@H]2C[C@H]3C(C)=CC(=O)[C@@H](O)[C@]3(C)[C@H]3[C@]4(O)OC[C@]32[C@@H]1[C@@H](C)[C@H]4O` [HOLACANTHONE] as the molecule, how does the T/C [3] read?
**A.** 159%

**Q.** `CC1=CC(=O)[C@@H](O)[C@]2(C)[C@H]3[C@]4(O)OC[C@]35[C@H]([C@@H](C)[C@H]4O)[C@@H](OC(=O)CC(C)(C)O)C(=O)O[C@@H]5C[C@@H]12` [SOULARUBINONE] was tested. Which T/C [4] did it give?
**A.** 137%
